21 compounds from ChEMBL document CHEMBL4421721, “Use of dynamin ring stabilizers” (2012) can be followed below.

Activity calls are given as the source filed them. The rule behind the calls is not given here.

Test [1] can be described thus: Inhibition of full-length native sheep brain dynamin 1 assessed as reduction in PS liposomes-induced GTPase activity in presence of tween-80 using 7 nM full-length dynamin 1. Further details: species or system Ovis aries.
Test [2] is described as follows: Inhibition of full-length native sheep brain dynamin 1 assessed as reduction in PS liposomes-induced GTPase activity in absence of tween-80 using 7 nM full-length dynamin 1. Also noted: species or system Ovis aries.
The nature of test [3]: Ring stabilizer activity at full-length native sheep brain dynamin 1 assessed as stimulation of GTPase activity in absence of PS liposomes using 200 nM full-length dynamin 1. Also noted: species or system Ovis aries.
A short description of test [4]: Inhibition of full-length native sheep brain dynamin 1 assessed as reduction in PS liposomes-induced GTPase activity using 20 nM full-length dynamin 1. Further details: species or system Ovis aries.
The target of test [5] is Dynamin-2 (Homo sapiens) (UniProt P50570). Put plainly: Inhibition of Dynamin-2 in human lymphoblasts incubated for 30 mins by electron microscopic analysis.
Test [6] is described as follows: Inhibition of full-length native sheep brain dynamin 1 assessed as reduction in PS liposomes-induced GTPase activity. Further details: species or system Ovis aries.
For test [7], the species on record is Ovis aries. Put plainly: Ring stabilizer activity at full-length native sheep brain dynamin 1 assessed as stimulation of GTPase activity in absence of PS liposomes and in presence of tween-80.
The species named for test [8] is Ovis aries. Kind of test: (§1) Ring stabilizer activity at full-length native sheep brain dynamin 1 assessed as stimulation of GTPase activity in absence of PS liposomes.
For test [9], the species on record is Ovis aries. Kind of test: Inhibition of dis-assembly of pre-assembled full-length native sheep brain dynamin 1 pre-incubated in presence of PS liposomes followed compound addition at 5 uM and measured after 10 mins.
Another test addresses T1, Dynamin-1 (Homo sapiens) (UniProt Q05193).
T1 sequence (whole entry): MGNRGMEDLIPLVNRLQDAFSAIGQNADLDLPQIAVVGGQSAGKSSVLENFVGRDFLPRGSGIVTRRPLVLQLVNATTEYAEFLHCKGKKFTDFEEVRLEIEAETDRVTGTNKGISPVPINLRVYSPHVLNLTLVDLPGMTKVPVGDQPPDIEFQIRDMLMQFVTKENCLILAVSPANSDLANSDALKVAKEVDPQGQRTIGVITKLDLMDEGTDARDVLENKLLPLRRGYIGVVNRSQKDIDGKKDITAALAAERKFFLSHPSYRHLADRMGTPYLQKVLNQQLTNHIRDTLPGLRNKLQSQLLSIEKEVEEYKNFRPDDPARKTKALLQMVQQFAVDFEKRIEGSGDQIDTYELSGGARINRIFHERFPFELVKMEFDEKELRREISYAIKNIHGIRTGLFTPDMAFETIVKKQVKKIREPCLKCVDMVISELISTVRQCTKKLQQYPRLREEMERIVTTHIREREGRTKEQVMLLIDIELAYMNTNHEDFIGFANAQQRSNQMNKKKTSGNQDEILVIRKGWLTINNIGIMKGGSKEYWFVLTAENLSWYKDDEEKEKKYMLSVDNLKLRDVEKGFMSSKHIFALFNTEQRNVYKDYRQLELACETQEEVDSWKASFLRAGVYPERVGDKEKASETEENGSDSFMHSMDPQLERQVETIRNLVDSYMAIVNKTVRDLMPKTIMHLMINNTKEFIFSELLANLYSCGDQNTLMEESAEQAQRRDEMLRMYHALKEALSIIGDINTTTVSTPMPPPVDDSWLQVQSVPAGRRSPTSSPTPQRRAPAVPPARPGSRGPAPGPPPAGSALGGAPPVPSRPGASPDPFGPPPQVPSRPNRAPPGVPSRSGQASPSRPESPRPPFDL
Kind of test: Ring stabilizer activity at recombinant dynamin 1 dimeric GG2 form (unknown origin) assessed as stimulation of GTPase activity using 200 to 1000 nM full-length dynamin.

Test [10] in a line: as §1. Further details: species or system Ovis aries.
The target in test [11] is T2, Dynamin-2 (Homo sapiens) (UniProt P50570).
T2 sequence (whole entry): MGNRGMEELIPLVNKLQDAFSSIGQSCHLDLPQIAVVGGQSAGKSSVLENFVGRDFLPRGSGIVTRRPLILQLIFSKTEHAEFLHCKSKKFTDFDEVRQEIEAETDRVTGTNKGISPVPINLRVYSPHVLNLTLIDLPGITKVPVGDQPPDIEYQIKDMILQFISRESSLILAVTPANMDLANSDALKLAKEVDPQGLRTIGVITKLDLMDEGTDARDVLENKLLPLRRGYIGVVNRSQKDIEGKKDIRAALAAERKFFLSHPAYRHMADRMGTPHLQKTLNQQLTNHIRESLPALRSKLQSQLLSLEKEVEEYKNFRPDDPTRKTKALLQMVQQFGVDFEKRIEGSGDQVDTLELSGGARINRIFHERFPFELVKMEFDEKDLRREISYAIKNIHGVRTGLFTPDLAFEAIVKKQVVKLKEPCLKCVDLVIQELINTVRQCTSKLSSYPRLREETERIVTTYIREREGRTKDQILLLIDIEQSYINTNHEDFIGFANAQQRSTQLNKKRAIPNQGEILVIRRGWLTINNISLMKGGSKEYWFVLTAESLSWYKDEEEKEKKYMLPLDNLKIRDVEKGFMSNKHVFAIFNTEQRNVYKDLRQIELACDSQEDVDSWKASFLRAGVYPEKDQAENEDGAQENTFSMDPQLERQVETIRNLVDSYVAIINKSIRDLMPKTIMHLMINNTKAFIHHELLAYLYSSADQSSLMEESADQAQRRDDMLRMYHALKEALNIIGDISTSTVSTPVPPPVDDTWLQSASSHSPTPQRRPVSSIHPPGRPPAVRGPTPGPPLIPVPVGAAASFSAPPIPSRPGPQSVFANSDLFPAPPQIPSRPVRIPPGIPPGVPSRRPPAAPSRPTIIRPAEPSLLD
Put plainly: Inhibition of Dynamin-2 in human lymphoblasts assessed as accumulation of clathrin coated pits at the plasma membrane incubated for 30 mins by electron microscopic analysis.

The species named for test [12] is Ovis aries. Kind of test: Induction of ring assembly of full-length native sheep brain dynamin 1 at 300 uM using 520 nM full-length dynamin in presence of 40 mM NaCl by Coomassie staining based SDS gel electrophoresis method.
In test [13] the target is T2, Dynamin-2 (Homo sapiens). Kind of test: Ring stabilizer activity at Dynamin-2 in human lymphoblasts assessed as accumulation in all cells of clathrin coated pits with highly elongated necks incubated for 30 mins by electron microscopic analysis. Format: cell-based.
Test [14] is filed under the species Ovis aries. Put plainly: Induction of ring assembly of full-length native sheep brain dynamin 1 at 100 uM using 520 nM full-length dynamin in presence of 40 to 60 […] by Coomassie staining based SDS gel electrophoresis method.
In test [15] the target is T2, Dynamin-2 (Homo sapiens). Kind of test: Ring stabilizer activity at Dynamin-2 in human lymphoblasts assessed as accumulation in all cells of clathrin coated pits with highly elongated necks encircled by electron dense rings incubated for 30 mins by electron microscopic analysis. Format: cell-based.
Test [16] deals with T3, Dynamin-1 (Rattus norvegicus) (UniProt P21575).
T3 sequence (whole entry): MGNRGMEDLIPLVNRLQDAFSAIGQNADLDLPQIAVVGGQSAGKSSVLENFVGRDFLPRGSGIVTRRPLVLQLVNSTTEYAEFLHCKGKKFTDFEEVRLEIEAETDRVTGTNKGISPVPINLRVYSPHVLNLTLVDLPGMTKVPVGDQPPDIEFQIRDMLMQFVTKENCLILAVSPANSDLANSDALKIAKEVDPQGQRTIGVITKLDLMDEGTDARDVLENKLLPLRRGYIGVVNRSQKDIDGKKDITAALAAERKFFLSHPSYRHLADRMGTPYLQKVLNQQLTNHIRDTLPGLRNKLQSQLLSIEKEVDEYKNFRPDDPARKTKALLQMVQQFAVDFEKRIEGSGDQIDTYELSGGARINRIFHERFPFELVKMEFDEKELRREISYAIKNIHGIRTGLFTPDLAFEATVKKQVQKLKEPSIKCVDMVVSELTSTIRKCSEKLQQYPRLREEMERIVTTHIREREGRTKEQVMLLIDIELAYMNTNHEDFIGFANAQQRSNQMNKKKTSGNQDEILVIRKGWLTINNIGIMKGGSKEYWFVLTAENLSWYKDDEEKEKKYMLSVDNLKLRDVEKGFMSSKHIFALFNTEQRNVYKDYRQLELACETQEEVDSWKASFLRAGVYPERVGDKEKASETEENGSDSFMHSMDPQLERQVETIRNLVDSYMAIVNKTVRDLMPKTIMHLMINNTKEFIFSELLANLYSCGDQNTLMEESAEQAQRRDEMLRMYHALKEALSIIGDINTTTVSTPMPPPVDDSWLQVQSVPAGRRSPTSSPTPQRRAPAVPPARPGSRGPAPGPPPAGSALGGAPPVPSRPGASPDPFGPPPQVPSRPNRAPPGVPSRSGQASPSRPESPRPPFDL
Kind of test: Ring stabilizer activity at Dynamin-1 rat brain synaptosomes depolarised with KCl assessed as formation of trapped endocytic pits encircled by a single electron dense ring incubated for 30 mins by electron microscopic analysis. Format: subcellular.

`O=C(N/N=C/c1ccc(O)c(O)c1O)c1cc2ccccc2cc1O`: the IC50 – broadly, the concentration needed to halve the response being measured – was “Not Active” in [1] and 3.1 µM in [2].

On to `N=c1oc2cc(O)c(O)cc2cc1C(=O)NCCNC(=O)c1cc2cc(O)c(O)cc2oc1=N`, for which the 50% effective concentration (EC50) (usually the concentration giving half of the maximal effect) in test [3] (read-out: EC50) is 31 µM. Moreover, the half-maximal inhibitory concentration (IC50) in test [4] came out at 0.33 µM.

Consider CETRIMIDE, for which, on Dynamin-2 (Homo sapiens) [5], the inhibition result is “Active”.

For `O=C(N/N=C/c1cc(O)c(O)cc1O)c1cc2ccccc2cc1O`, the values for the 50% inhibitory concentration (IC50) in test [1] (read-out: IC50) and in test [6] were 2.7 µM and 0.3 µM, respectively. In addition, the result in the test filed under Ovis aries [7] was inactive. Also, the result in the test listed under Ovis aries [8] was Active.

On to `N=c1oc2c(O)cccc2cc1C(=O)NCCCNC(=O)c1cc2cccc(O)c2oc1=N`, for which the concentration giving a half-maximal response (EC50) result in [3] is “Not Active”. Besides, the IC50 in [4] amounted to 36.6 µM.

`CCCCCCCCNC(=O)/C(C#N)=C/c1cn(CCCN(C)C)c2ccccc12`: the result in the test listed under Ovis aries [7] was Active. The outcome in the test listed under Ovis aries [8] was inactive. The inhibition entry in the test listed under Ovis aries [9] is “Active”.

With `N=c1oc2c(O)c(O)ccc2cc1C(=O)NCCCNC(=O)c1cc2ccc(O)c(O)c2oc1=N`, the result on Dynamin-1 (Homo sapiens) was inactive. In addition, in test [4], the IC50 is 0.45 µM. The half-maximal effective concentration (EC50) in test [10] came out at 1 µM.

With `CCCCCCNC(=O)/C(C#N)=C/c1c(C)n(CCN(C)C)c2ccccc12`, the outcome in the test filed under Ovis aries [7] was Active.

Consider `CCCCCCCCCCNC(=O)/C(C#N)=C/c1cn(CCN(C)C)c2ccccc12`, for which the outcome in the test filed under Ovis aries [7] was Active.

Consider `O=C(N/N=C/c1cc(O)cc(O)c1)c1cc2ccccc2cc1O`, for which the IC50 entry in test [1] is “Not Active”; in [2], 39.8 µM.

On to `O=C(N/N=C/c1cc(O)c(O)c(O)c1)c1cc2ccccc2cc1O`, for which the values for the IC50 in [1] (read-out: IC50) and in test [2] were 468 µM and 4.4 µM, respectively.

Take `N=c1oc2cc(O)c(O)cc2cc1C(=O)NCCCNC(=O)c1cc2cc(O)c(O)cc2oc1=N`: the concentration for half-maximal inhibition (IC50) in test [4] is 0.26 µM. Also, the concentration giving a half-maximal response (EC50) in test [10] came out at 4 µM.

In the case of `O=C(N/N=C/c1cccc(O)c1O)c1cc2ccccc2cc1O`, the IC50 came to 19.8 µM in test [1] (read-out: IC50) and 22.1 µM in test [2].

Turning to `CCCCCCCCCCCCCCCCCC[N+](C)(C)C`, the result in the test filed under Ovis aries [7] was Active.

Turning to `COc1cc(/C=N/NC(=O)c2cc3ccccc3cc2O)c(O)cc1O`, the concentration for half-maximal inhibition (IC50) in [1] (read-out: IC50) amounted to 1170 µM; in test [2] it was 3.6 µM.

Turning to `O=C(N/N=C/c1ccc(O)c(O)c1)c1cc2ccccc2cc1O`, the outcome in the test listed under Ovis aries [8] was Active. The inhibition entry at Dynamin-2 (Homo sapiens) [11] is “Active”.

Take `O=C(N/N=C/c1ccc(O)cc1O)c1cc2ccccc2cc1O`: the values for the IC50 in test [1] (read-out: IC50) and in test [2] were 200 µM and 7.3 µM, respectively.

As for `CCCCCCCCNC(=O)/C(C#N)=C/c1c(C)n(CCN(C)C)c2ccccc12`, the outcome in the test filed under Ovis aries [7] was Active.

Regarding `N#C/C(=C\c1ccc(O)c(O)c1)C(=O)NCCCNC(=O)/C(C#N)=C/c1ccc(O)c(O)c1`, at Dynamin-1 (Homo sapiens), the outcome was inactive. In addition, the result (in the test filed under Ovis aries [12]; at Dynamin-2 (Homo sapiens) [13]; in the test listed under Ovis aries [14]; in the test filed under Ovis aries [7]; on Dynamin-2 (Homo sapiens) [15]; in [16]) was Active.

Regarding `N=c1oc2cc(O)ccc2cc1C(=O)NCCCNC(=O)c1cc2ccc(O)cc2oc1=N`, the half-maximal effective concentration (EC50) in test [3] (read-out: EC50) stood at 40 µM. In addition, in [4], the IC50 was determined as 17.3 µM.

`CCCCCCNC(=O)/C(C#N)=C/c1c(C)n(CCCN(C)C)c2ccccc12`: in the test filed under Ovis aries [7], the outcome was Active.
